Measurements from PubChem BioAssay (NCI).
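Grown in 96-well plates, cells were treated for 48 hours with each compound at five concentrations. Insufficient inhibition: endpoint recorded as highest concentration tested. At the GI50, growth is halved. The concentration for full growth arrest is given as TGI.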

Columns and labels:
Experiment in all cases: growth of human tumour cells (NCI), 48 h
CAKI-1 renal = system: CAKI-1 renal
CCRF-CEM leukemia = system: CCRF-CEM leukemia
MDA-MB-435 = system: MDA-MB-435
K-562 leukemia = system: K-562 leukemia
KM12 colon = system: KM12 colon
NCI/ADR-RES ovarian = system: NCI/ADR-RES ovarian
U251 CNS = system: U251 CNS
HT29 colon = system: HT29 colon
A549 NSCLC = system: A549 NSCLC
NCI-H522 lung = system: NCI-H522 lung
SK-MEL-2 melanoma = system: SK-MEL-2 melanoma
ACHN renal = system: ACHN renal
DU-145 prostate = system: DU-145 prostate
HL-60(TB) leukemia = system: HL-60(TB) leukemia
UACC-257 melanoma = system: UACC-257 melanoma
OVCAR-8 ovarian = system: OVCAR-8 ovarian
IGROV1 ovarian = system: IGROV1 ovarian
T-47D breast = system: T-47D breast
HS 578T breast = system: HS 578T breast
SK-MEL-28 melanoma = system: SK-MEL-28 melanoma
HOP-62 NSCLC = system: HOP-62 NSCLC
M14 melanoma = system: M14 melanoma
BT-549 breast = system: BT-549 breast
NCI-H23 lung = system: NCI-H23 lung
HCT-116 colon = system: HCT-116 colon
SF-295 CNS = system: SF-295 CNS
SNB-75 CNS = system: SNB-75 CNS
PC-3 prostate = system: PC-3 prostate
MALME-3M melanoma = system: MALME-3M melanoma
A498 renal = system: A498 renal
MDA-MB-231 breast = system: MDA-MB-231 breast
SW-620 colon = system: SW-620 colon
TK-10 renal = system: TK-10 renal
SN12C renal = system: SN12C renal
UACC-62 melanoma = system: UACC-62 melanoma
RPMI-8226 leukemia = system: RPMI-8226 leukemia
COLO 205 colon = system: COLO 205 colon
786-0 renal = system: 786-0 renal
OVCAR-4 ovarian = system: OVCAR-4 ovarian
SF-539 CNS = system: SF-539 CNS
EKVX NSCLC = system: EKVX NSCLC
OVCAR-5 ovarian = system: OVCAR-5 ovarian
HCC-2998 colon = system: HCC-2998 colon
HCT-15 colon = system: HCT-15 colon
SK-OV-3 ovarian = system: SK-OV-3 ovarian
RXF 393 renal = system: RXF 393 renal
LOX IMVI melanoma = system: LOX IMVI melanoma
OVCAR-3 ovarian = system: OVCAR-3 ovarian
NCI-H226 lung = system: NCI-H226 lung
SR leukemia = system: SR leukemia
HOP-92 NSCLC = system: HOP-92 NSCLC
UO-31 renal = system: UO-31 renal

COc1cccc2c(Nc3ccc(C(=O)O)cc3)cc(-c3ccccc3)nc12
GI50 (CAKI-1 renal): > 100 µM | TGI (CAKI-1 renal): > 100 µM | GI50 (CCRF-CEM leukemia): > 100 µM | TGI (CCRF-CEM leukemia): > 100 µM | GI50 (MDA-MB-435): > 100 µM | TGI (MDA-MB-435): > 100 µM | GI50 (K-562 leukemia): > 100 µM | TGI (K-562 leukemia): > 100 µM | GI50 (KM12 colon): > 100 µM | TGI (KM12 colon): > 100 µM | GI50 (NCI/ADR-RES ovarian): > 100 µM | TGI (NCI/ADR-RES ovarian): > 100 µM | GI50 (U251 CNS): > 100 µM | TGI (U251 CNS): > 100 µM | GI50 (HT29 colon): > 100 µM | TGI (HT29 colon): > 100 µM | GI50 (A549 NSCLC): > 100 µM | TGI (A549 NSCLC): > 100 µM | GI50 (NCI-H522 lung): > 100 µM | TGI (NCI-H522 lung): > 100 µM | GI50 (SK-MEL-2 melanoma): > 100 µM | TGI (SK-MEL-2 melanoma): > 100 µM | GI50 (ACHN renal): > 100 µM | TGI (ACHN renal): > 100 µM | GI50 (DU-145 prostate): > 100 µM | TGI (DU-145 prostate): > 100 µM | GI50 (HL-60(TB) leukemia): > 100 µM | TGI (HL-60(TB) leukemia): > 100 µM | GI50 (UACC-257 melanoma): > 100 µM | TGI (UACC-257 melanoma): > 100 µM | GI50 (OVCAR-8 ovarian): > 100 µM | TGI (OVCAR-8 ovarian): > 100 µM | GI50 (IGROV1 ovarian): > 100 µM | TGI (IGROV1 ovarian): > 100 µM | GI50 (T-47D breast): 84.5 µM | TGI (T-47D breast): > 100 µM | GI50 (HS 578T breast): > 100 µM | TGI (HS 578T breast): > 100 µM | GI50 (SK-MEL-28 melanoma): > 100 µM | TGI (SK-MEL-28 melanoma): > 100 µM | GI50 (HOP-62 NSCLC): > 100 µM | TGI (HOP-62 NSCLC): > 100 µM | GI50 (M14 melanoma): > 100 µM | TGI (M14 melanoma): > 100 µM | GI50 (BT-549 breast): > 100 µM | TGI (BT-549 breast): > 100 µM | GI50 (NCI-H23 lung): > 100 µM | TGI (NCI-H23 lung): > 100 µM | GI50 (HCT-116 colon): > 100 µM | TGI (HCT-116 colon): > 100 µM | GI50 (SF-295 CNS): > 100 µM | TGI (SF-295 CNS): > 100 µM | GI50 (SNB-75 CNS): 72.3 µM | TGI (SNB-75 CNS): > 100 µM | GI50 (PC-3 prostate): > 100 µM | TGI (PC-3 prostate): > 100 µM | GI50 (MALME-3M melanoma): > 100 µM | TGI (MALME-3M melanoma): > 100 µM | GI50 (A498 renal): > 100 µM | TGI (A498 renal): > 100 µM | GI50 (MDA-MB-231 breast): > 100 µM | TGI (MDA-MB-231 breast): > 100 µM | GI50 (SW-620 colon): > 100 µM | TGI (SW-620 colon): > 100 µM | GI50 (TK-10 renal): > 100 µM | TGI (TK-10 renal): > 100 µM | GI50 (SN12C renal): > 100 µM | TGI (SN12C renal): > 100 µM | GI50 (UACC-62 melanoma): > 100 µM | TGI (UACC-62 melanoma): > 100 µM | GI50 (RPMI-8226 leukemia): > 100 µM | TGI (RPMI-8226 leukemia): > 100 µM | GI50 (COLO 205 colon): > 100 µM | TGI (COLO 205 colon): > 100 µM | GI50 (786-0 renal): > 100 µM | TGI (786-0 renal): > 100 µM | GI50 (OVCAR-4 ovarian): > 100 µM | TGI (OVCAR-4 ovarian): > 100 µM | GI50 (SF-539 CNS): > 100 µM | TGI (SF-539 CNS): > 100 µM | GI50 (EKVX NSCLC): > 100 µM | TGI (EKVX NSCLC): > 100 µM | GI50 (OVCAR-5 ovarian): > 100 µM | TGI (OVCAR-5 ovarian): > 100 µM | GI50 (HCC-2998 colon): > 100 µM | TGI (HCC-2998 colon): > 100 µM | GI50 (HCT-15 colon): > 100 µM | TGI (HCT-15 colon): > 100 µM | GI50 (SK-OV-3 ovarian): > 100 µM | TGI (SK-OV-3 ovarian): > 100 µM | GI50 (RXF 393 renal): > 100 µM | TGI (RXF 393 renal): > 100 µM | GI50 (LOX IMVI melanoma): > 100 µM | TGI (LOX IMVI melanoma): > 100 µM | GI50 (OVCAR-3 ovarian): > 100 µM | TGI (OVCAR-3 ovarian): > 100 µM | GI50 (NCI-H226 lung): > 100 µM | TGI (NCI-H226 lung): > 100 µM | GI50 (SR leukemia): > 100 µM | TGI (SR leukemia): > 100 µM | GI50 (HOP-92 NSCLC): 39.4 µM | TGI (HOP-92 NSCLC): > 100 µM | GI50 (UO-31 renal): > 100 µM | TGI (UO-31 renal): > 100 µM
